Test results reported in EP3936128A1, “ACTIVE SUBSTANCE AGAINST PROTOZOA” (Christian-Albrechts-Universität zu Kiel, priority 2020, dated 2022).
Read-outs that look alike come from different tables or passages of the source.

What was measured:
Format in all cases: cell-based
FNT of P. vivax (PvFNT) = FNT of P. vivax (PvFNT) (Plasmodium vivax, UniProt A0A1G4GWI6); experiment: Inhibition of the FNT of P. vivax
PfFNT wildtype = biological target: T1, PfFNT wildtype (Plasmodium falciparum, UniProt O77389); experiment: Inhibition of radiolabelled L-lactate uptake in yeast expressing wild-type PfFNT
T1 construct: expressed in transfected cells; host or cells: Saccharomyces cerevisiae W303-1A jen1Δ ady2Δ, plasmid pDR196
Procedure: (§1) Plasmodium falciparum were kept in culture in 5% 0+ erythrocytes in RPMI 1640 medium containing 0,5% Albumax at 37 °C. […] Medium containing test compounds was exchanged every 24 h. In order to test for the propensity of parasites to develop resistance to a given substance, 3D7 parasites were grown in the presence of 3 x IC50 of a test for 30 days. Thereafter the drug was removed by exchanging the medium, and the day recorded when parasites resurfaced in the culture. As an alternative to Plasmodium falciparum, the FNT of the wild-type plasmodium (available under accession number PF3D7_0316600 in the data bank PlasmoDB) and the FNT (G107S mutant FNT) of the resistant plasmodia were expressed in the yeast Saccharomyces cerevisiae W303-1A jen1Δ ady2Δ from plasmid pDR196 (PMA promoter). In the yeast, the endogenous genes for the monocarboxylate transporter Jen1p (sequence accession No. CAA82062 NCBI) and Ady2p (sequence accession No. KZV12856) were deleted (obtained from M. Casal, Universidade do Minho, Portugal).
(§2) This yeast was grown in SD medium with addition of adenine, histidine, leucine, tryptophan and 2 % (wt/v) glucose at 30 °C up to an OD600 of 0.8 to 1.0, harvested by centrifugation and washed once with water and centrifuged down again, and suspended in 50 mM HEPES/TRIS (pH 6.8) and adjusted to an OD600 of 50± 10% and stored on ice. For contacting with one of the compounds a compound of one step of a dilution series in DMSO was provided in a reaction vessel and onto this 80 µL of the yeast suspension were pipetted. After an incubation on ice for 15 to 20 min 20 µL 5 mM Na-L-lactate plus 0.04 µCi radioactively labelled L-(1-^14C) lactate was added. The lactate concentration obtained was 1 mM. After an incubation of 30 s the uptake of lactate was stopped by a rapid dilution by means of adding of 1 ml ice cold water. From the yeast suspension diluted this way the yeast cells were brought onto a filter membrane by vacuum filtration, washed with 7 ml cold water and transferred with the filter membrane into 3 ml scintillation cocktail. After 24 h of incubation at 18 °C in the scintillation cocktail, in which the cells were lysed, the amount of radioactively labelled lactate was measured by means of a scintillation counter. The total amount of lactate which was taken up by the yeast was calculated from the measured amount of radioactively labelled lactate. As a positive control the yeast was treated equally in parallel testing with DMSO without one of the compounds and was regarded as 100% FNT activity, respectively 0% inhibition. In tests with the compound a lower amount of lactate taken up was found in comparison to the parallel positive control. As a negative control yeast was treated in parallel in which the endogenous genes for the monocarboxylate transporters Jen1p and Ady2p were deleted, but the FNT from plasmodium was not expressed. This negative control was regarded as 0% FNT activity, respectively 100% inhibition.

PfFNT G107S = biological target: T2, PfFNT G107S (Plasmodium falciparum, UniProt O77389, G107S); experiment: Inhibition of radiolabelled L-lactate uptake in yeast expressing G107S mutant PfFNT
T2 construct: expressed in transfected cells; host or cells: Saccharomyces cerevisiae W303-1A jen1Δ ady2Δ, plasmid pDR196
T2 sequence (O77389 1-309 G107S): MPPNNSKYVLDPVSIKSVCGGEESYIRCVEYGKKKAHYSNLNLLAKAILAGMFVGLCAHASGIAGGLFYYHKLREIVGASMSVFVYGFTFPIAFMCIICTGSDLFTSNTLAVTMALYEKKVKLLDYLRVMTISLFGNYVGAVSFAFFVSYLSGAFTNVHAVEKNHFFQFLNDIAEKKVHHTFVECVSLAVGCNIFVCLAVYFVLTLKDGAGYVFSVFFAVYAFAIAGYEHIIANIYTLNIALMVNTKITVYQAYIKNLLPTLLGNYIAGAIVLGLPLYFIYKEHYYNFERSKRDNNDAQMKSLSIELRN
Procedure: as §1, §2

[1] = biological target: FNT of P. knowlesi (PkFNT) (Plasmodium knowlesi, UniProt A0A679KXN5); experiment: Inhibition of the FNT of P. knowlesi
FNT of P. ovale (PoFNT) = FNT of P. ovale (PoFNT) (Plasmodium ovale, UniProt A0A1D3TGZ2); experiment: Inhibition of the FNT of P. ovale
[2] = biological target: FNT of P. malariae (PmFNT) (Plasmodium malariae, UniProt A0A1C3KYI2); experiment: Inhibition of the FNT of P. malariae
[3] = read-out: IC50 for the FNT of P. vivax (PvFNT)
[4] = G107S mutant FNT, 1 mM lactate, pH 6.8, 30 s uptake, read-out: PfFNT G107S IC50

T1 sequence (O77389 whole entry): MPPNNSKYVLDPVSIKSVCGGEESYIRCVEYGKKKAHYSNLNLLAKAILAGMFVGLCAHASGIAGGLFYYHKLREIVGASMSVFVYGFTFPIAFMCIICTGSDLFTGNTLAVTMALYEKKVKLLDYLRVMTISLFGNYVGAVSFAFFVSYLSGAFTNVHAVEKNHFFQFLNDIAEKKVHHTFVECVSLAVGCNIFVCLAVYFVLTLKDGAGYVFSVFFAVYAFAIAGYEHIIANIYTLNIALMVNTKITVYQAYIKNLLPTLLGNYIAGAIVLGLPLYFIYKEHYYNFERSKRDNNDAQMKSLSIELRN
Chain of FNT of P. vivax (PvFNT) (A0A1G4GWI6 whole entry): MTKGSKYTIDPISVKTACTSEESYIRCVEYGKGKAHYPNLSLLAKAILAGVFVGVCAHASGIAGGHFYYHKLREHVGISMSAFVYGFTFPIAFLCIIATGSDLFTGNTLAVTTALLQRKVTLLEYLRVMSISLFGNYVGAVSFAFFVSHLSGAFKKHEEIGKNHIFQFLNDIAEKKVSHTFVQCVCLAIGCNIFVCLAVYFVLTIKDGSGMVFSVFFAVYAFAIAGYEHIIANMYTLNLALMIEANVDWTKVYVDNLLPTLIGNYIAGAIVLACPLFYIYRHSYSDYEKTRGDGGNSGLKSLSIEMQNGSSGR
Chain of FNT of P. knowlesi (PkFNT) (A0A679KXN5 whole entry): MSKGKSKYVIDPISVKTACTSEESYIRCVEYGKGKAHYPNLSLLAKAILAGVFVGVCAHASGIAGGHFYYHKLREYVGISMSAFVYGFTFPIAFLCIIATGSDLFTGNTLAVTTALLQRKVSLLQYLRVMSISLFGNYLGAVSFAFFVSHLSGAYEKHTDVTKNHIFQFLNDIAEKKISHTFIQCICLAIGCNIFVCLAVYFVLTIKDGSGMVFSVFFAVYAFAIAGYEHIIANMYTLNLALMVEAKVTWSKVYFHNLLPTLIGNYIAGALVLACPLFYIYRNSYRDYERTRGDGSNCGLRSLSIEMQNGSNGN
Chain of FNT of P. ovale (PoFNT) (A0A1D3TGZ2 whole entry): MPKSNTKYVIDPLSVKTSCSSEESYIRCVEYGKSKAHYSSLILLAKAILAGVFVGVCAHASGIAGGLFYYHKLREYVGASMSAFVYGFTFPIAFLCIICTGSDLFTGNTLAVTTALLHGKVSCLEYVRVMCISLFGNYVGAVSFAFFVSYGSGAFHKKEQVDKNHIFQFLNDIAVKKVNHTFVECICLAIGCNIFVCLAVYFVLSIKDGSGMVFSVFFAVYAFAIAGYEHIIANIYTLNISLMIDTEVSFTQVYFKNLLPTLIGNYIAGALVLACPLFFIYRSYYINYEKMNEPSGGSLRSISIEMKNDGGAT
Chain of FNT of P. malariae (PmFNT) (A0A1C3KYI2 whole entry): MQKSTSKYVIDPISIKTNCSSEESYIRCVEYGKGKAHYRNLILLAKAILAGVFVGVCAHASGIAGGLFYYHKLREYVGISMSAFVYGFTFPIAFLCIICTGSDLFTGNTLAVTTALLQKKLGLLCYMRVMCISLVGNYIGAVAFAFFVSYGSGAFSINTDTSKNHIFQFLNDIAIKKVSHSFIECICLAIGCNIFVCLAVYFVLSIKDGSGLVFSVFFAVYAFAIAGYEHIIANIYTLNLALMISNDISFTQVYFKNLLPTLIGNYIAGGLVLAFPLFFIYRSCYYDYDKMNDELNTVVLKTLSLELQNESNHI

SMILES	IC50 (PfFNT wildtype) [nM]	IC50 (PfFNT G107S; [4]) [nM]	IC50 (PfFNT G107S) [nM]	other results
COc1ccc(C(=O)C=C(O)C(F)(F)C(F)(F)F)c(O)c1 [compound [1], reference compound]	170 ± 10	21000 ± 1000	–	IC50 (FNT of P. vivax (PvFNT); [3]): 69 ± 3 nM; IC50 [1]: 212 ± 70 nM
COc1ccc(C(=O)C=C(O)C(F)(F)C(F)(F)F)cc1 [compound [2], reference compound]	140 ± 10	2700 ± 200	–	IC50 (FNT of P. ovale (PoFNT)): ~900 nM; IC50 (FNT of P. vivax (PvFNT); [3]): 249 ± 80 nM; IC50 [2]: 391 ± 50 nM; IC50 [1]: 985 ± 80 nM
CC(C)(O)CC(=O)C=C(O)C(F)(F)C(F)(F)F [compound [3], reference compound]	1100 ± 100	490000 ± 20000	–	–
O=C(C=C(O)C(F)(F)C(F)(F)F)c1ccc[nH]1 [compound [4], reference compound]	160 ± 10	12000 ± 1000	–	–
O=C(C=C(O)C(F)(F)C(F)(F)F)c1cc[nH]c1 [compound [5], reference compound]	200 ± 10	13000 ± 1000	–	–
Cn1ccc(C(=O)C=C(O)C(F)(F)C(F)(F)F)c1 [compound [6], reference compound]	130 ± 10	14000 ± 1000	–	–
O=C(C=C(O)C(F)(F)C(F)(F)F)c1cc2ccccc2o1 [compound [7], reference compound]	190 ± 10	17000 ± 2000	–	–
O=C(C=C(O)C(F)(F)C(F)(F)F)c1cccnn1 [compound [12], 4,4,5,5,5-pentafluoro-3-hydroxy-1-pyridazin-3-yl-pent-2-en-1-one]	860 ± 30	–	3800 ± 800	–
O=C(C=C(O)C(F)(F)C(F)(F)F)c1cnccn1 [compound [13], 4,4,5,5,5-pentafluoro-3-hydroxy-1-pyrazin-2-yl-pent-2-en-1-one]	460 ± 30	–	1200 ± 300	–
O=C(C=C(O)C(F)(F)C(F)(F)F)c1ccncc1 [compound [14], 4,4,5,5,5-pentafluoro-3-hydroxy-1-(4-pyridyl)pent-2-en-1-one]	150 ± 30	–	22000 ± 7000	–
O=C(C=C(O)C(F)(F)C(F)(F)F)c1ccccn1 [compound [15], 4,4,5,5,5-pentafluoro-3-hydroxy-1-(2-pyridyl)pent-2-en-1-one]	150 ± 10	–	580 ± 90	–
O=C(C=C(O)C(F)(F)C(F)(F)F)c1cccnc1 [compound [16], 4,4,5,5,5-pentafluoro-3-hydroxy-1-(3-pyridyl)pent-2-en-1-one]	110 ± 10	–	630 ± 50	IC50 (FNT of P. ovale (PoFNT)): 213 ± 30 nM; IC50 (FNT of P. vivax (PvFNT)): 229 ± 10 nM; IC50 [2]: 214 ± 20 nM; IC50 [1]: 874 ± 60 nM
O=C(C=C(O)C(F)(F)C(F)(F)F)c1cnc2ccccc2c1 [compound [17], 4,4,5,5,5-pentafluoro-3-hydroxy-1-(3-quinolyl)pent-2-en-1-one]	240 ± 40	–	–	IC50 (PfFNT G107S; read-out: PfFNT G107S IC50, G107S mutant FNT, 1 mM lactate, pH 6.8, 30 s uptake): 96000 ± 800 nM
Cc1ccc(C(=O)C=C(O)C(F)(F)C(F)(F)F)cn1 [compound [18], 4,4,5,5,5-pentafluoro-3-hydroxy-1-(6-methyl-3-pyridyl)pent-2-en-1-one]	150 ± 10	–	1700 ± 300	–
O=C(C=C(O)C(F)(F)C(F)(F)F)c1ccc(Cl)cn1 [compound [19], 1-(5-chloropyridin-2-yl)-4,4,5,5,5-pentafluoro-3-hydroxypent-2-en-1-one]	230 ± 70	–	510 ± 90	–
COc1ccc(C(=O)C=C(O)C(F)(F)C(F)(F)F)cn1 [compound [20], 4,4,5,5,5-pentafluoro-3-hydroxy-1-(6-methoxy-3-pyridyl)pent-2-en-1-one]	110 ± 10	–	260 ± 50	–
O=C(C=C(O)C(F)(F)CO)c1cccnc1 [compound [21], 4,4-difluoro-3,5-dihydroxy-1-(3-pyridyl)pent-2-en-1-one]	5500	–	–	–
CCCCC(F)(F)C(O)=CC(=O)c1cccnc1 [compound [22], 4,4-difluoro-3-hydroxy-1-(3-pyridyl)oct-2-en-1-one]	360 ± 50	24000 ± 6000	–	–
